{"source": "paper PMC9148066", "about": "“The Medicinal Halophyte Frankenia laevis L. (Sea Heath) Has In Vitro Antioxidant Activity, α-Glucosidase Inhibition, and Cytotoxicity towards Hepatocarcinoma Cells” (Plants, 2022)", "key": {"RSA on DPPH radical": {"experiment": "RSA on DPPH radical", "details": "DPPH 120 µM, 30 min", "method": "(§1) The absorbance was measured in a microplate reader (Biotek Synergy 4), and the activity was calculated as a percentage of inhibition, relative to a control containing DMSO in place of the sample.\n(§2) The extracts were tested on DPPH and ABTS, as described elsewhere. The samples were mixed with radical solutions (DPPH: 120 µM; ABTS: 7.4 mM) in 96-well flat-bottom microtitration plates and were incubated in darkness at RT for 30 and 6 min, respectively. The synthetic antioxidant BHT (E320), used as a preservative in food and cosmetics, was used as a positive control at the same concentrations of the samples. The absorbance was measured at 517 and 734 nm for DPPH and ABTS, respectively."}, "RSA on ABTS radical": {"experiment": "RSA on ABTS radical", "details": "ABTS 7.4 mM, 6 min", "method": "as §1, §2"}, "[1]": {"tested_on": "human lung carcinoma cells (A549)", "set-up": "method as in PMID 19471192", "details": "cited from earlier work"}, "[2]": {"experiment": "Copper chelating activity (CCA)", "details": "pyrocatechol violet, CuSO4", "procedure": "(§5) The CCA and ICA of the extracts and the positive control (EDTA) were assessed in 96-well microplates according to the methods described in Rodrigues et al. [53]. For CCA, the samples were mixed with 50 mM Na acetate buffer (pH 6), 4 mM pyrocatechol violet, and 50 µg/mL CuSO4 solution. For ICA, the samples were mixed with distilled water and 0.1 mg/mL FeCl2 solution. After 30 min, a 40 mM ferrozine solution was added. The change in absorbance was measured at 632 and 562 nm for CCA and ICA, correspondingly."}, "[3]": {"experiment": "Iron chelating activity (ICA)", "details": "FeCl2, ferrozine", "procedure": "as §5"}, "HepG2 cells [4]": {"tested_on": "HepG2 cells", "details": "cited from earlier work"}, "α-glucosidase": {"biological_target": "α-glucosidase", "set-up": "method as in doi:10.1016/j.sajb.2020.01.011", "details": "cited from earlier work"}, "HepG2 cells [5]": {"tested_on": "HepG2 cells", "experiment": "Cellular viability assay (MTT), HepG2", "type": "cell-based", "details": "Homo sapiens, 72 h, read-out: HepG2 cytotoxic activity EC50", "method": "(§3) The HepG2 (human hepatocellular carcinoma) and S17 (murine bone marrow stromal) cell lines were maintained in Dulbecco’s modified eagle medium (DMEM) culture medium supplemented with 10% heat-inactivated fetal bovine serum (FBS), 1% L-glutamine (2 mM), and 1% penicillin (50 U/mL)/streptomycin (50 μg/mL) and were maintained at 37 °C in humidified atmosphere with 5% CO2.\n(§4) HepG2 and S17 cells were plated in 96-well tissue plates at a density of 5 × 10^3 cells/well and were incubated for 24 h. Then, the extracts were applied at several concentrations (3.125, 6.25, 12.5, 25, 50 and 100 µg/mL) for 72 h. The 3-(4,5-dimethylthiazol-2-yl)-2,5-diphenyltetrazolium bromide (MTT) colorimetric test was used to determine the cellular viability (Biotek Synergy 4), as formerly detailed. […] The selectivity index (SI) was obtained by dividing the EC50 value of non-tumoral cells (S17) by the EC50 of tumoral cells (HepG2)."}, "[6]": {"experiment": "Cellular viability assay (MTT), S17", "type": "cell-based", "details": "mouse, S17 bone marrow stromal cells (non-tumoral), read-out: S17 cytotoxic activity EC50", "method": "as §3, §4"}}, "note": "Marks after values point to notes of the source that are not given here.", "data": [{"smiles": "Cc1cc(C(C)(C)C)c(O)c(C(C)(C)C)c1", "note": "[BHT, butylated hydroxytoluene]", "values": [{"measurement": "RSA-DPPH EC50", "setting": "RSA on DPPH radical", "value": "0.11 ± 0.00 ^a mg/mL"}, {"measurement": "RSA-ABTS EC50", "setting": "RSA on ABTS radical", "value": "0.06 ± 0.00 ^a mg/mL"}]}, {"smiles": "CC1(C)CCCC2(C)OC(=O)C=C12", "note": "(centres unmarked) [Dihydroactinidiolide]", "values": [{"measurement": "Cytotoxic effect on A549", "setting": "[1]", "value": "strong cytotoxic effect"}]}, {"smiles": "O=C(O)CN(CCN(CC(=O)O)CC(=O)O)CC(=O)O", "note": "[EDTA, ethylenediamine tetraacetic acid]", "values": [{"measurement": "CCA EC50", "setting": "[2]", "value": "0.17 ± 0.00 ^a mg/mL"}, {"measurement": "ICA EC50", "setting": "[3]", "value": "0.06 ± 0.00 ^a mg/mL"}]}, {"smiles": "CC1(C)C[C@H](O)C[C@@]2(C)OC(=O)C=C12", "note": "[Loliolide]", "values": [{"measurement": "Cytotoxicity against HepG2 cells", "setting": "HepG2 cells [4]", "value": "selective cytotoxicity"}, {"measurement": "α-glucosidase EC50", "setting": "α-glucosidase; approx. equivalent of the µM value", "value": "approx. 76 µg/mL"}, {"measurement": "EC50", "setting": "α-glucosidase", "value": 388, "unit": "µM"}]}, {"smiles": "COc1cc([C@@H]2c3cc4c(cc3[C@@H](O[C@@H]3O[C@@H]5CO[C@@H](C)O[C@H]5[C@H](O)[C@H]3O)[C@H]3COC(=O)[C@H]23)OCO4)cc(OC)c1O", "note": "[etoposide]", "values": [{"measurement": "EC50", "setting": "HepG2 cells [5]", "value": "1.45 ± 0.15", "unit": "mg/L"}, {"measurement": "EC50 at 72 h", "setting": "[6]", "value": "7.86 ± 0.25", "unit": "mg/L"}]}, {"smiles": "CC1(C)C[C@H](O)C[C@]2(C)OC(=O)C=C12", "note": "[isololiolide, Isololiolide]", "values": [{"measurement": "Cytotoxicity against HepG2 cells", "setting": "HepG2 cells [4]", "value": "selective cytotoxicity"}]}]}
